Source: patent publication US20250018014A1, “METHOD FOR TREATING AND/OR PREVENTING REGNASE-1-RELATED DISEASE” (OSAKA UNIVERSITY, priority 2018, published 2025)
Residues, ends and D or L forms follow the SMILES beside them.

Target: T1, FL_Reg1 (Homo sapiens, UniProt Q5D1E8)
T1 construct: made in house; host or cells: Expi293 cells
T1 sequence (Q5D1E8 1-599): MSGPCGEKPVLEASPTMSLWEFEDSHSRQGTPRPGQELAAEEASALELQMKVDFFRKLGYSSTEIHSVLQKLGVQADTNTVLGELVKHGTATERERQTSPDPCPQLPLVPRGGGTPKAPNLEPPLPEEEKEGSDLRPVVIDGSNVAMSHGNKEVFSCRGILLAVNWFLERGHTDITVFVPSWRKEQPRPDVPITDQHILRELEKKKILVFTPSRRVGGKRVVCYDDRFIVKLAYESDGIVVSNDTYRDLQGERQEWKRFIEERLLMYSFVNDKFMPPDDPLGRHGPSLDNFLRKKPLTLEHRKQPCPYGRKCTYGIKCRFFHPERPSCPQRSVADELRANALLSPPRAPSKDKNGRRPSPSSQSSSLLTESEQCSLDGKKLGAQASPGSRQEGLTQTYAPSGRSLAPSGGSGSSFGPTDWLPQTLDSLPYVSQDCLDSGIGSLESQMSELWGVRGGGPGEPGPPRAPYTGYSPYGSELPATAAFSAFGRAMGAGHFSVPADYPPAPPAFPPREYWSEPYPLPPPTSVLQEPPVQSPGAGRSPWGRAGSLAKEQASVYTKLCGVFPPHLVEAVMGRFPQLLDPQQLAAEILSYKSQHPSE
Experiment: Binding of Regnase-1 and peptide compounds (affinity mass analysis, SEC then LC/MS)
Conditions: 1 μM FL_Reg1, final compound concentration 1 μM, 23° C. for one hour
Method: To a 96 PP plate (Greiner bio-one, 651201) coated with lipidure (Lipidure-CM5206) (NOF CORPORATION, 71S42000001), 2 μL of Tris-Buffer (25 mM Tris-NaOH pH 8.3, 300 mM NaCl, 1 mM DTT, 1 mM EDTA, 1% DMSO) was dispensed, and then 1 mM DMSO sample was added at 20 nL each with a LABCYTE ECHO (registered trademark) acoustic dispensing system. Furthermore, 18 μL of protein prepared at 1 μM FL_Reg1 in advance using Tris-Buffer was added (final compound concentration: 1 μM), and the mixture was incubated in the dark at 23° C. for one hour. Then, to a 96-well, 400 μL, Hydrophilic PVDF 0.45 μm, Long drip (Harvard, 74-5556), 100 μL of P-2, Fine (Bio-Rad, 1504114) which had been swollen in advance was added, and conditioning was performed by centrifuging several times at 2000× G for two minutes using the buffer. Next, 20 μL of the sample after incubation was added to the conditioned 96-well, 400 μL, Hydrophilic PVDF 0.45 μm, Long drip, and SEC treatment was performed by centrifugation at 2000×G for two minutes. To the liquid from SEC, 32 μL of acetonitrile (LC/MS grade, FUJIFILM Wako Pure Chemical Industries, Ltd.) supplemented with 0.1% formic acid (LC/MS grade, 067-04531, FUJIFILM Wako Pure Chemical Industries, Ltd.) was added, and this was centrifuged at 1800×G for five minutes, and the supernatant was used as an analysis sample for LC/MS measurement. Binding to Regnase-1 was detected for all of the peptide compounds, PP1 to PP25.

| Compound | AS-MS ratio(%) |
| --- | --- |
| CC[C@H](C)[C@@H]1NC(=O)[C@H](CCCCN)NC(=O)[C@H](Cc2ccc(O)cc2)NC(=O)[C@H](Cc2c[nH]c3ccccc23)NC(=O)[C@H](CO)NC(=O)[C@H](CC(N)=O)NC(=O)[C@H](C)N(C)C(=O)C[C@@H](C(=O)N2CCCC2)NC(=O)[C@H](CC(C)C)NC(=O)CNC(=O)[C@H](Cc2c[nH]c3ccccc23)NC1=O [PP21] (HELM PEPTIDE1{[meA].N.S.W.Y.K.I.W.G.L.D.[C1CCN([*:1])C1]}$PEPTIDE1,PEPTIDE1,1:R1-11:R3$$$V2.0) | 15.1 |
| CC[C@H](C)[C@@H]1NC(=O)[C@H](CCCNC(=N)N)NC(=O)[C@H](Cc2ccc(O)cc2)NC(=O)[C@H](Cc2c[nH]c3ccccc23)NC(=O)[C@H](CO)NC(=O)[C@H](CC(N)=O)NC(=O)[C@H](C)N(C)C(=O)C[C@@H](C(=O)N2CCCC2)NC(=O)[C@H](CC(C)C)NC(=O)CNC(=O)[C@H](Cc2c[nH]c3ccccc23)NC1=O [PP22] (HELM PEPTIDE1{[meA].N.S.W.Y.R.I.W.G.L.D.[C1CCN([*:1])C1]}$PEPTIDE1,PEPTIDE1,1:R1-11:R3$$$V2.0) | 14.5 |
| CC[C@H](C)[C@@H]1NC(=O)[C@H](CO)NC(=O)[C@H](CCCNC(=N)N)NC(=O)[C@H](Cc2ccc(O)cc2)NC(=O)[C@H](Cc2ccc(O)cc2)NC(=O)[C@H](Cc2c[nH]c3ccccc23)NC(=O)[C@H](CO)NC(=O)[C@H](CCC(N)=O)NC(=O)[C@H](Cc2ccc(O)cc2)NC(=O)[C@H](CC(N)=O)NC(=O)[C@H](C)N(C)C(=O)C[C@@H](C(=O)N2CCCC2)NC(=O)[C@H](Cc2c[nH]c3ccccc23)NC1=O [PP10] (HELM PEPTIDE1{[meA].N.Y.Q.S.W.Y.Y.R.S.I.W.D.[C1CCN([*:1])C1]}$PEPTIDE1,PEPTIDE1,1:R1-13:R3$$$V2.0) | 3.7 |
| CC[C@H](C)[C@@H]1NC(=O)[C@H](CC(N)=O)NC(=O)[C@H]([C@@H](C)CC)NC(=O)[C@H](Cc2ccc(O)cc2)NC(=O)[C@H](Cc2c[nH]c3ccccc23)NC(=O)[C@H](CO)NC(=O)[C@H](CC(N)=O)NC(=O)[C@H](C)N(C)C(=O)C[C@@H](C(=O)N2CCCC2)NC(=O)[C@H](Cc2c[nH]cn2)NC(=O)CNC(=O)[C@H](Cc2c[nH]c3ccccc23)NC1=O [PP15] (HELM PEPTIDE1{[meA].N.S.W.Y.I.N.I.W.G.H.D.[C1CCN([*:1])C1]}$PEPTIDE1,PEPTIDE1,1:R1-12:R3$$$V2.0) | 66.7 |
| CC[C@H](C)[C@@H]1NC(=O)[C@H](CC(N)=O)NC(=O)[C@H](Cc2ccc(O)cc2)NC(=O)[C@H](Cc2c[nH]c3ccccc23)NC(=O)[C@H](CO)NC(=O)[C@H](CC(N)=O)NC(=O)[C@H](CO)NC(=O)[C@H](Cc2ccccc2)NC(=O)[C@H](CC(N)=O)NC(=O)[C@H](C)N(C)C(=O)C[C@@H](C(=O)N2CCCC2)NC(=O)[C@H](Cc2c[nH]c3ccccc23)NC1=O [PP16] (HELM PEPTIDE1{[meA].N.F.S.N.S.W.Y.N.I.W.D.[C1CCN([*:1])C1]}$PEPTIDE1,PEPTIDE1,1:R1-12:R3$$$V2.0) | 17.9 |
